Test results published in patent US20210369677A1, “SMALL MOLECULE ACTIVATORS OF POLYCYSTIN-2 (PKD2) AND USES THEREOF” (Northwestern University, priority 2020, published 2021).

Biological target: T1, polycystin-2 (Homo sapiens, UniProt Q13563)
T1 construct: expressed in transfected cells
T1 sequence (Q13563 1-968): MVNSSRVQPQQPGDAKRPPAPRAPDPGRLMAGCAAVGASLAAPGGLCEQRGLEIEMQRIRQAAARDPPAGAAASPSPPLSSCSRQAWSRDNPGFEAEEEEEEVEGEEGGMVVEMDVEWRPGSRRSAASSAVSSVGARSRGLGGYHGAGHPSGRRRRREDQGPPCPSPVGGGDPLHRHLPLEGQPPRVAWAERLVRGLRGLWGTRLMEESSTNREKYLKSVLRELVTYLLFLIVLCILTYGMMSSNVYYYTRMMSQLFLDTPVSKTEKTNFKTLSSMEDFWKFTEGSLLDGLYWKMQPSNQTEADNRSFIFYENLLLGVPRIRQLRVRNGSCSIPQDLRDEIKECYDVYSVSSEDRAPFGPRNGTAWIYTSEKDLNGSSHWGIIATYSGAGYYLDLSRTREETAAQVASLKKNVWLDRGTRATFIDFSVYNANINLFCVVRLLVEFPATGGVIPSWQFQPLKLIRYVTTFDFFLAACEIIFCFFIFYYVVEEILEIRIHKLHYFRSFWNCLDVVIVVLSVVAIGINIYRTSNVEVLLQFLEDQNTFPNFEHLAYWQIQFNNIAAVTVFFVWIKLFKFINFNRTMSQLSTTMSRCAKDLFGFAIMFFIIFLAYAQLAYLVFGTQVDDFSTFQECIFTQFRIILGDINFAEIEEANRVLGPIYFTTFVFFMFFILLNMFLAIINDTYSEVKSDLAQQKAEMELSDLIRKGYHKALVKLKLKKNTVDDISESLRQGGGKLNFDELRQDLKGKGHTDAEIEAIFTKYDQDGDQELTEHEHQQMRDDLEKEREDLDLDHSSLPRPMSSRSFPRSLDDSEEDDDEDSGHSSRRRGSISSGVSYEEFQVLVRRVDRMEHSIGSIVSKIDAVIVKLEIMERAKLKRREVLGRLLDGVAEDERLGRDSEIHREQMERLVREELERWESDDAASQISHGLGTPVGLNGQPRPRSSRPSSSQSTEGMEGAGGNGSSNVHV
Assay: Inside-out cilia patch of HEK cells, voltage dependent channel opening at low and high intraciliary Ca2+
Format: cell-based
Details: from low (100 nM) to high (100 μM) Ca2+, WT channels
Text: To test whether calcium occupancy of the EF hand is responsible for CDM and CDD of human polycystin-2, we generated double alanine mutations at the −X ([…]) and −Z vertices (E774A) which abolished Ca^2+ affinity for the CTD fragment (FIG. 17B). We then expressed the −X-Z double mutation in PKD2-GFP in a PKD2^null HEK cell line, so that exogenous channels could be assayed without the contribution of endogenous PKD2 alleles, as previously described (Vien et al., 2020). The stably expressed human WT and −X-Z channels trafficked to the primary cilia, and glass electrodes with submicron apertures were fabricated to form high resistance electrical seals with the GFP-illuminated cilia membranes (FIG. 18A). […] These experiments were performed with only one channel present in the membrane, so that stochastic effects on single channel states could be determined. […]
Electrophysiology. The electrophysiologist was blinded by a third party in the laboratory, where test groups were assigned a letter to conceal the genetic identity of the cells being evaluated. […] Ciliary ion currents were recorded using borosilicate glass electrodes polished to resistances of 14-23 MΩ using the cilium patch method previously described (Vien et al., 2020). Single channel currents measured in the inside-out configuration were recorded in symmetrical sodium concentrations. […]

`[Ca+2]` [Ca^2+, calcium] was tested, and the “Shift in the voltage-dependence of half maximal open probability (V1/2)” value was −47 mV.
